Experimental data as given in patent US8481544B2, “Antibacterial compositions” (Biota Europe Limited, priority 2006, dated 2013).
Converted amounts (≈) assume the structure as drawn.

System: Enterococcus faecalis ATCC 29212
Experiment: MIC against Enterococcus faecalis ATCC 29212
Format: cell-based
Conditions: ATCC29212; Enterococcus faecalis ATCC 29212; read-out: MICs against Enterococcus faecalis, Activity
Procedure: Institute. Methods for Dilution Antimicrobial Susceptibility Tests for Bacteria That Grow Aerobically; Approved Standard—Seventh Edition. Document M7-A7. CLSI, Wayne, Pa., 2006; Clinical Laboratories and Standards Institute. Methods for Antimicrobial Susceptibility Testing of Anaerobic Bacteria; Approved Standard—Sixth Edition. Document M11-A6. CLSI, Wayne, Pa., 2004).
Compounds of this invention were tested for antimicrobial activity by susceptibility testing in liquid or on solid media. MICs for compounds against each strain were determined by the broth microdilution or agar dilution method according to the guidelines of the Clinical Laboratories and Standards Institute, formerly the National Committee for Clinical Laboratory Standards (Clinical Laboratories and Standards Institute. Methods for Dilution Antimicrobial Susceptibility Tests for Bacteria That Grow Aerobically; Approved Standard—Seventh Edition. Document M7-A7. CLSI, Wayne, Pa., 2006; Clinical Laboratories and Standards Institute. Methods for Antimicrobial Susceptibility Testing of Anaerobic Bacteria; Approved Standard—Sixth Edition. Document M11-A6. CLSI, Wayne, Pa., 2004).

Row | Compound | MIC [µg/mL]
1 | CCNC(=O)Nc1nc2cc(-c3ccccn3)cc(-c3cnc(N)nc3)c2s1 [Example 74, 1-[7-(2-Amino-pyrimidin-5-yl)-5-pyridin-2-yl-benzothiazol-2-yl]-3-ethyl-urea] | 2 to 16 (≈ 5.11 to 40.9 µM)
2 | CCNC(=O)Nc1nc2cc(-c3ccnc(OC)c3)cc(-c3ccccn3)c2s1 [Example 40, 1-Ethyl-3-[5-(2-methoxy-pyridin-4-yl)-7-pyridin-2-yl-benzothiazol-2-yl]-urea] | 0.25 to 1 (≈ 0.617 to 2.47 µM)
3 | CCNC(=O)Nc1nc2cc(-c3cccnc3)cc(-c3ccc(C#N)cn3)c2s1 [Example 107, 1-[7-(5-Cyano-pyridin-2-yl)-5-pyridin-3-yl-benzothiazol-2-yl]-3-ethyl-urea] | < 0.25
4 | CCNC(=O)Nc1nc2cc(-c3ccc(OC)nc3)cc(-c3cccnc3)c2s1 [Example 29, 1-Ethyl-3-[5-(6-methoxy-pyridin-3-yl)-7-pyridin-3-yl-benzothiazol-2-yl]-urea] | 0.25 to 1 (≈ 0.617 to 2.47 µM)
5 | CCNC(=O)Nc1nc2cc(-c3cnc4[nH]ccc4c3)cc(-c3cccnc3)c2s1 [Example 49, 1-Ethyl-3-[7-pyridin-3-yl-5-(1H-pyrrolo[2,3-b]pyridin-5-yl)-benzothiazol-2-yl]-urea] | 0.25 to 1 (≈ 0.603 to 2.41 µM)
6 | CCNC(=O)Nc1nc2cc(-c3ccn(CCO)c(=O)c3)cc(-c3ccccn3)c2s1 [Example 57, 1-Ethyl-3-{5-[1-(2-hydroxy-ethyl)-2-oxo-1,2-dihydro-pyridin-4-yl]-7-pyridin-2-yl-benzothiazol-2-yl}-urea] | 0.25 to 1 (≈ 0.574 to 2.3 µM)
7 | CCNC(=O)Nc1nc2cc(-c3cccnc3)cc(-c3ncccc3Cl)c2s1 [Example 126, 1-[7-(3-Chloro-pyridin-2-yl)-5-pyridin-3-yl-benzothiazol-2-yl]-3-ethyl-urea] | < 0.25
8 | CCNC(=O)Nc1nc2cc(-c3cccnc3)cc(-c3ccc4cc[nH]c4n3)c2s1 [Example 111, 1-Ethyl-3-[5-pyridin-3-yl-7-(1H-pyrrolo[2,3-b]pyridin-6-yl)-benzothiazol-2-yl]-urea] | < 0.25
9 | CCNC(=O)Nc1nc2cc(-c3ccc(NC(=O)CN(C)C)nc3)cc(-c3ccccn3)c2s1 [Example 66, 2-Dimethylamino-N-{5-[2-(3-ethyl-ureido)-7-pyridin-2-yl-benzothiazol-5-yl]-pyridin-2-yl}-acetamide] | 0.25 to 1 (≈ 0.526 to 2.1 µM)
10 | CCNC(=O)Nc1nc2cc(-c3cccnc3)cc(-c3cc[nH]n3)c2s1 [Example 82, 1-Ethyl-3-[7-(1H-pyrazol-3-yl)-5-pyridin-3-yl-benzothiazol-2-yl]-urea] | 0.25 to 1 (≈ 0.686 to 2.74 µM)
11 | CCNC(=O)Nc1nc2cc(-c3cccnc3)cc(-c3cn[nH]c3)c2s1 [Example 80, 1-Ethyl-3-[7-(1H-pyrazol-4-yl)-5-pyridin-3-yl-benzothiazol-2-yl]-urea] | 0.25 to 1 (≈ 0.686 to 2.74 µM)
12 | CCNC(=O)Nc1nc2cc(-c3ccc(CN(CCOC)CCOC)nc3)cc(-c3ccccn3)c2s1 [Example 60, 1-[5-(6-{[Bis-(2-methoxy-ethyl)-amino]-methyl}-pyridin-3-yl)-7-pyridin-2-yl-benzothiazol-2-yl]-3-ethyl-urea] | 0.25 to 1 (≈ 0.48 to 1.92 µM)
13 | CCNC(=O)Nc1nc2cc(-c3ccc(NC(C)=O)nc3)cc(-c3ccc(N)cn3)c2s1 [Example 135, N-{5-[7-(5-Amino-pyridin-2-yl)-2-(3-ethyl-ureido)-benzothiazol-5-yl]-pyridin-2-yl}-acetamide] | 0.25 to 1 (≈ 0.559 to 2.23 µM)
14 | CCNC(=O)Nc1nc2cc(-c3cnc4c(c3)CCC(=O)N4)cc(-c3ccccn3)c2s1 [Example 71, 1-Ethyl-3-[5-(7-oxo-5,6,7,8-tetrahydro-[1,8]naphthyridin-3-yl)-7-pyridin-2-yl-benzothiazol-2-yl]-urea] | < 0.25
15 | CCNC(=O)Nc1nc2cc(-c3cccnc3)cc(-c3ccc(CN(C)C)cn3)c2s1 [Example 132, 1-[7-(5-Dimethylaminomethyl-pyridin-2-yl)-5-pyridin-3-yl-benzothiazol-2-yl]-3-ethyl-urea] | 2 to 16 (≈ 4.62 to 37 µM)
16 | CCNC(=O)Nc1nc2cc(-c3ccc(CO)cc3)cc(-c3ccc(CO)cc3)c2s1 [Example 144, 1-[5,7-Bis-(4-hydroxymethyl-phenyl)-benzothiazol-2-yl]-3-ethyl-urea] | 0.25 to 1 (≈ 0.577 to 2.31 µM)
17 | CCNC(=O)Nc1nc2cc(-c3ccc(N)nc3)cc(-c3ccccn3)c2s1 [Example 138, 1-[5-(6-Amino-pyridin-3-yl)-7-pyridin-2-yl-benzothiazol-2-yl]-3-ethyl-urea] | < 0.25
18 | CCNC(=O)Nc1nc2cc(-c3cccnc3)cc(C(=O)NN)c2s1 [Example 153, 1-Ethyl-3-(7-hydrazinocarbonyl-5-pyridin-3-yl-benzothiazol-2-yl)-urea] | 2 to 16 (≈ 5.61 to 44.9 µM)
19 | CCNC(=O)Nc1nc2cc(-c3ccc(NC(C)=O)nc3)cc(-c3cnccn3)c2s1 [Example 134, N-{5-[2-(3-Ethyl-ureido)-7-pyrazin-2-yl-benzothiazol-5-yl]-pyridin-2-yl}-acetamide] | < 0.25
20 | CCNC(=O)Nc1nc2cc(-c3cccnc3)cc(-c3ccc(CN)cn3)c2s1 [Example 97, 1-[7-(5-Aminomethyl-pyridin-2-yl)-5-pyridin-3-yl-benzothiazol-2-yl]-3-ethyl-urea] | 0.25 to 1 (≈ 0.618 to 2.47 µM)

Row | Compound | MIC [µg/mL]
21 | CCNC(=O)Nc1nc2cc(-c3cccnc3)cc(-c3cc(Cl)ccn3)c2s1 [Example 127, 1-[7-(4-Chloro-pyridin-2-yl)-5-pyridin-3-yl-benzothiazol-2-yl]-3-ethyl-urea] | < 0.25
22 | CCNC(=O)Nc1nc2cc(-c3cccnc3)cc(-c3cc(N(C)C)ccn3)c2s1 [Example 169, 1-[7-(4-Dimethylamino-pyridin-2-yl)-5-pyridin-3-yl-benzothiazol-2-yl]-3-ethyl-urea] | 0.25 to 1 (≈ 0.597 to 2.39 µM)
23 | CCNC(=O)Nc1nc2cc(-c3cncc(C(=O)NCCN4CCOCC4)c3)cc(-c3ccccn3)c2s1 [Example 68, 5-[2-(3-Ethyl-ureido)-7-pyridin-2-yl-benzothiazol-5-yl]-N-(2-morpholin-4-yl-ethyl)-nicotinamide] | 0.25 to 1 (≈ 0.47 to 1.88 µM)
24 | CCNC(=O)Nc1nc2cc(-c3cccnc3)cc(-c3ncccc3CO)c2s1 [Example 109, 1-Ethyl-3-[7-(3-hydroxymethyl-pyridin-2-yl)-5-pyridin-3-yl-benzothiazol-2-yl]-urea] | 2 to 16 (≈ 4.93 to 39.5 µM)
25 | CCNC(=O)Nc1nc2cc(-c3cccnc3)cc(-c3ccc(OC)nn3)c2s1 [Example 105, 1-Ethyl-3-[7-(6-methoxy-pyridazin-3-yl)-5-pyridin-3-yl-benzothiazol-2-yl]-urea] | 0.25 to 1 (≈ 0.615 to 2.46 µM)
26 | CCNC(=O)Nc1nc2cc(-c3cnc4c(c3)NC(=O)CO4)cc(-c3ccccn3)c2s1 [Example 54, 1-Ethyl-3-[5-(2-oxo-2,3-dihydro-1H-pyrido[2,3-b][1,4]oxazin-7-yl)-7-pyridin-2-yl-benzothiazol-2-yl]-urea] | 0.25 to 1 (≈ 0.56 to 2.24 µM)
27 | CCNC(=O)Nc1nc2cc(-c3cnc(N)nc3)cc(-c3cnc(N)nc3)c2s1 [Example 145, 1-[5,7-Bis-(2-amino-pyrimidin-5-yl)-benzothiazol-2-yl]-3-ethyl-urea] | 2 to 16 (≈ 4.91 to 39.3 µM)
28 | CCNC(=O)Nc1nc2cc(-c3cnc(N)nc3)cc(-c3cnccn3)c2s1 [Example 139, 1-[5-(2-Amino-pyrimidin-5-yl)-7-pyrazin-2-yl-benzothiazol-2-yl]-3-ethyl-urea] | < 0.25
29 | CCNC(=O)Nc1nc2cc(-c3cccnc3)cc(-c3ncccn3)c2s1 [Example 93, 1-Ethyl-3-(5-pyridin-3-yl-7-pyrimidin-2-yl-benzothiazol-2-yl)-urea] | 0.25 to 1 (≈ 0.664 to 2.66 µM)
30 | CCNC(=O)Nc1nc2cc(-c3cccnc3)cc(-c3cccc(C#N)n3)c2s1 [Example 113, 1-[7-(6-Cyano-pyridin-2-yl)-5-pyridin-3-yl-benzothiazol-2-yl]-3-ethyl-urea] | < 0.25
31 | CCNC(=O)Nc1nc2cc(-c3cccnc3)cc(-c3nccc4cc[nH]c34)c2s1 [Example 115, 1-Ethyl-3-[5-pyridin-3-yl-7-(1H-pyrrolo[2,3-c]pyridin-7-yl)-benzothiazol-2-yl]-urea] | < 0.25
32 | CCNC(=O)Nc1nc2cc(-c3cncc(C(=O)NCCN(C)C)c3)cc(-c3ccccn3)c2s1 [Example 64, N-(2-Dimethylamino-ethyl)-5-[2-(3-ethyl-ureido)-7-pyridin-2-yl-benzothiazol-5-yl]-nicotinamide] | 2 to 16 (≈ 4.08 to 32.7 µM)
33 | CCNC(=O)Nc1nc2cc(-c3ccc(N(C)C)nc3)cc(-c3ccccn3)c2s1 [Example 38, 1-[5-(6-Dimethylamino-pyridin-3-yl)-7-pyridin-2-yl-benzothiazol-2-yl]-3-ethyl-urea] | 0.25 to 1 (≈ 0.597 to 2.39 µM)
34 | CCNC(=O)Nc1nc2cc(-c3cccnc3)cc(-c3cscn3)c2s1 [Example 158, 1-Ethyl-3-(5-pyridin-3-yl-7-thiazol-4-yl-benzothiazol-2-yl)-urea] | 0.25 to 1 (≈ 0.655 to 2.62 µM)
35 | CCNC(=O)Nc1nc2cc(-c3cccnc3)cc(-c3csc(OC)n3)c2s1 [Example 157, 1-Ethyl-3-[7-(2-methoxy-thiazol-4-yl)-5-pyridin-3-yl-benzothiazol-2-yl]-urea] | 0.25 to 1 (≈ 0.608 to 2.43 µM)
36 | CCNC(=O)Nc1nc2cc(-c3cnn(C)c3)cc(-c3cnn(C)c3)c2s1 [Example 7, 1-[5,7-Bis-(1-methyl-1H-pyrazol-4-yl)-benzothiazol-2-yl]-3-ethyl-urea] | 0.25 to 1 (≈ 0.655 to 2.62 µM)
37 | CCNC(=O)Nc1nc2cc(-c3cccnc3)cc(-c3cccnc3OC)c2s1 [Example 85, 1-Ethyl-3-[7-(2-methoxy-pyridin-3-yl)-5-pyridin-3-yl-benzothiazol-2-yl]-urea] | 0.25 to 1 (≈ 0.617 to 2.47 µM)
38 | CCNC(=O)Nc1nc2cc(-c3cncc(N)n3)cc(-c3ccccn3)c2s1 [Example 53, 1-[5-(6-Amino-pyrazin-2-yl)-7-pyridin-2-yl-benzothiazol-2-yl]-3-ethyl-urea] | < 0.25
39 | CCNC(=O)Nc1nc2cc(-c3cccnc3)cc(-c3cc(CO)ccn3)c2s1 [Example 121, 1-Ethyl-3-[7-(4-hydroxymethyl-pyridin-2-yl)-5-pyridin-3-yl-benzothiazol-2-yl]-urea] | < 0.25
